Reference: patent US9387186B2, “Thiourea derivatives” (priority 2014, dated 2016)
Like-named read-outs stand apart in the source and are kept apart here.

How the values were obtained:
Format in all cases: cell-based, Staphylococcus aureus
EMRSA-16 [1] = assay: High throughput screening assay (MABA) against MDR S. aureus; details: for activity in MABA (in words): summary of Table 1
Protocol: (§1) In growth medium (Muller Hinton broth), the pure isolated colonies were inoculated and incubated at 37° C. for 20-24 hours. After 20-24 hours, the turbidity was checked and adjusted to 0.5 McFarland standards.
(§2) For this assay, the stock solutions of 1 mg/mL concentration of compounds (I and II) were made by using DMSO. 96-Wells sterile, flat bottom micro titer plates were used with proper labeling, 20 μg/mL of both compounds were added in first wells and made two fold serial dilutions by using sterile broth. The cells suspensions (conc. 5×10^5) were then added in each wells, finally the volume was made up with broth up to 200 μL in each well. The plate was sealed and incubated at 37° C. for 20-24 hours. Experiments were carried out in triplicate manner. After incubation of 20-24 hours, Alamar Blue Dye was added (10%) to the culture volume and kept the plates on shaking incubator at 37° C. for 3 to 4 hours. Change in color was then assessed visually and qualitatively. Quantitative analysis was recorded by taking absorbance at 570 and 600 nm by a spectrophotometer.
(§3) The above mentioned protocol was followed by the method reported by Sarkar et al., (2007) with slight modifications.
(§4) Percentage reduction and inhibition of Alamar blue dye was calculated by using the following formulas:
(§5) [formula] Where, • εox=molar extinction coefficient of Alamar blue oxidized form (blue) • εred=molar extinction coefficient of Alamar blue reduced form (pink) • A=absorbance of test wells • A′=absorbance of negative control well • λ1=570 nm • λ2=600 nm
(§6) Here control wells contain only media plus Alamar Blue, while the test wells contain both Alamar Blue with the test compounds.
(§7) [formula] Where, • εox=molar extinction coefficient of Alamar blue oxidized form (blue) • A=absorbance of test wells • A°=absorbance of positive growth control well • λ1=570 nm • λ2=600 nm
(§8) Here control wells contain cells+media+Alamar Blue, while the test wells contain both Alamar Blue with the test compounds+cells (The percent inhibitions are available in Table 1).

MRSA 252 = assay: as above; details: for activity in MABA (in words): summary of Table 1
Protocol: as §1, §2, §3, §4, §5, §6, §7, §8

EMRSA-17 [2] = assay: as above; details: for activity in MABA (in words): summary of Table 1
Protocol: as §1, §2, §3, §4, §5, §6, §7, §8

Clinical Isolates = assay: as above; details: for activity in MABA (in words): summary of Table 1
Protocol: as §1, §2, §3, §4, §5, §6, §7, §8

EMRSA-16 and -17 [3] = assay: Reactive oxygen species (O2-) production, lucigenin CL assay; details: 25, 50 and 100 μg/mL; lucigenin chemiluminescence
Protocol: Assay Protocol: 5×10^5 Cells were incubated with the different concentrations of compounds (25, 50 and 100. μg/mL), leucigenin and filtered phosphate buffer saline. For the triggering of reaction, DMSO was added to the each well at the time of RLU determination. No test compounds were added in positive control but it contained DMSO, while no test compound and DMSO were added in negative control. Chemiluminescence (CL) was determined at room temperature by luminometer. The light emission results were measured in relative light unit (RLU). Protocol of above discussed protocol was followed by the method of Albesa et al (2002) with slight modifications.

EMRSA-16 [4] = assay: Reversal of multi-drug resistance (MIC / FIC, Alamar blue); details: for MIC of antibiotic in combination: antibiotic in combination of compounds I and II
Protocol: (§9) Fixed concentration of compounds I and II and increasing concentration of antibiotics (drugs) were made in 96-well plates. 5×10^5 multidrug resistant S. aureus cells were added in each well and incubated for 20-24 hours. No test compounds and antibiotics were present in control wells Inhibition and growth were noted both visually and by using the dye Alamar blue. FIC of Antibiotic a (FICa)=MIC of Antibiotic a in combination/MIC of Antibiotic a alone FIC of Compound b (FICb)=MIC of Compound b in combination/MIC of Compound b alone
(§10) The sum of Fractional Inhibitory Concentration (FICs) index of (FICa)+(FICb)=(FICs). Fractional inhibitory concentrations were calculated by the above cited formula. (The FIC values of compounds I and II are available (FIGS. 4A and 4B). Protocol of Chung et al. (2011), with slight modifications, was followed for above discussed reversal resistance assay.

EMRSA-17 [5] = assay: as above
Protocol: as §9, §10

EMRSA-16 and -17 [6] = assay: Membrane potential and integrity, DiBAC4(3) flow cytometry; details: 20 μg/mL, 20-24 h; DiBAC4(3) fluorescence FL1
Protocol: 20 μg/mL of compounds I and II were tested against 5×10^5 multidrug resistant S. aureus cells and incubated for 20-24 hours, while cells without compounds were taken as a control. Stock solution (1 mg/mL) for the membrane potential probe DiBAC4(3) was made in absolute ethanol and stored at −20° C. 1 mL of exponentially growing S. aureus were taken from broth cultures and centrifuged at 11,000 rpm for 2 mins Supernatant was discarded and cells pallets were dissolved in 4 mL of filtered phosphate-buffered saline (PBS). Final 10 μg/mL conc. of fluorogenic substrates DiBAC4 were adjusted in 4 mL volume. The stained cell suspension was incubated at 37° C. for 30 min. Before flow cytometric analysis, cells were washed in PBS buffer by centrifugation. The above mentioned protocol was adapted from the procedures of Jepras et al. (1997) with slight modifications. Assays were performed by using Becton Dickinson FACSCaliber™ flow cytometer (USA). A total of 50,000 cells were counted by using Cell Quest software (BD) for data acquisition and analysis. DiBAC4(3) was detected as green fluorescence in the channel FL1 (Veal et al., 2000).

EMRSA-16 and -17 [7] = assay: Inhibition of MDR efflux pumps, EtBr accumulation flow cytometry; details: combinations with antibiotics, 3 hrs; FL-2 channel
Protocol: Assay Protocol: Different combinations of compounds I and II with antibiotics, and antibiotic alone, were made and incubated with bacterial cells for 3 hrs. After incubation cells were stained with ethidium bromide. Both the control and treated cells were centrifuged for 3 mins at 13,000 rpm. The pallet was washed with PBS. Negative control was free from ethidium bromide (EtBr), while positive control contains (EtBr). By using FL2 channel, FACS analyses were carried out. Protocol of Kalle et al. (2009) was employed with some modifications.
Flow cytometry data acquisition: For data acquisition and analysis Cell Quest software (BD) were used. A total number of 50,000 cells were counted. EtBr fluorescence was detected through (FL-2 channel).

[8] = Staphylococcus aureus, EMRSA-17, substance alone, read-out: MIC
[9] = Staphylococcus aureus, 20 μg/mL, Alamar blue, 20-24 h

Thiocarbamide [Thiourea]
activity in MABA (in words) (EMRSA-16 [1]; 20 μg/mL): resistant | % Inhibition 20 μg/mL EMRSA-16 (EMRSA-16 [1]; Alamar blue, 20-24 h): No Inhibition | % Inhibition 20 μg/mL MRSA 252 (MRSA 252; 20 μg/mL, Alamar blue, 20-24 h): No Inhibition | activity in MABA (in words) (MRSA 252): resistant | activity in MABA (in words) (EMRSA-17 [2]; 20 μg/mL): resistant | % Inhibition 20 μg/mL EMRSA-17 (EMRSA-17 [2]; Alamar blue, 20-24 h): No Inhibition | % Inhibition 20 μg/mL Clinical Isolates (Clinical Isolates; 20 μg/mL, Alamar blue, 20-24 h): No Inhibition | activity in MABA (in words) (Clinical Isolates): resistant

COc1cccc(NC(=S)Nc2cccc(Cl)c2)c1 [II, N-(3-Chlorophenyl)-N-(3methoxyphenyl) thiourea]
production of reactive oxygen species (O2-) (EMRSA-16 and -17 [3]): generation of O2^− in MDR cells were detected | MIC (EMRSA-16 [4]; Staphylococcus aureus, substance alone): 52 µg/mL | MIC (EMRSA-17 [5]; [8]): 25 µg/mL | effect on membrane potential and integrity (EMRSA-16 and -17 [6]): depolarization and the disruption of cytoplasmic membrane | inhibition of efflux pump (EtBr accumulation) (EMRSA-16 and -17 [7]): excellent capacity to inhibit the bacterial efflux pump mechanism | activity in MABA (in words) (EMRSA-16 [1]; 20 μg/mL): active | inhibition at 20 µg/mL (EMRSA-16 [1]; [9]): 50.1% | inhibition at 20 µg/mL (MRSA 252; [9]): 14.8% | activity in MABA (in words) (EMRSA-17 [2]; 20 μg/mL): active | inhibition at 20 µg/mL (EMRSA-17 [2]; [9]): 82.6% | inhibition at 20 µg/mL (Clinical Isolates; [9]): 19.6%

O=C(O)c1cn(C2CC2)c2cc(N3CCNCC3)c(F)cc2c1=O [ciprofloxacin]
MIC of antibiotic in combination (EMRSA-16 [4]): 4 µg/mL

Cc1onc(-c2ccccc2)c1C(=O)N[C@@H]1C(=O)N2[C@@H]1SC(C)(C)[C@@H]2C(=O)O [oxacillin]
MIC of antibiotic in combination (EMRSA-16 [4]): 16 µg/mL | MIC (EMRSA-17 [5]; [8]): 2050 µg/mL

NC(N)=O [Urea, Carbamide, carbonyl diamide, carbonyldiamine, Diaminomethanal]
activity in MABA (in words) (EMRSA-16 [1]; 20 μg/mL): resistant | % Inhibition 20 μg/mL EMRSA-16 (EMRSA-16 [1]; Alamar blue, 20-24 h): No Inhibition | % Inhibition 20 μg/mL MRSA 252 (MRSA 252; 20 μg/mL, Alamar blue, 20-24 h): No Inhibition | activity in MABA (in words) (MRSA 252): resistant | activity in MABA (in words) (EMRSA-17 [2]; 20 μg/mL): resistant | % Inhibition 20 μg/mL EMRSA-17 (EMRSA-17 [2]; Alamar blue, 20-24 h): No Inhibition | % Inhibition 20 μg/mL Clinical Isolates (Clinical Isolates; 20 μg/mL, Alamar blue, 20-24 h): No Inhibition | activity in MABA (in words) (Clinical Isolates): resistant

penicillin
MIC of antibiotic in combination (EMRSA-16 [4]): 8 µg/mL | MIC (EMRSA-17 [5]; EMRSA-17, substance alone): 1024 µg/mL

CCC[C@@H]1C[C@@H](C(=O)N[C@@H]([C@H]2O[C@H](SC)[C@H](O)[C@@H](O)[C@H]2O)[C@H](C)Cl)N(C)C1 [clindamycin]
MIC of antibiotic in combination (EMRSA-16 [4]): 32 µg/mL | MIC (EMRSA-17 [5]; [8]): 4100 µg/mL

O=C(N[C@H](CO)[C@H](O)c1ccc([N+](=O)[O-])cc1)C(Cl)Cl [chloramphenicol]
MIC of antibiotic in combination (EMRSA-16 [4]): 16 µg/mL

neomycin
MIC of antibiotic in combination (EMRSA-16 [4]): 8 µg/mL | MIC (EMRSA-17 [5]; EMRSA-17, substance alone): 512 µg/mL

Cc1cc(NS(=O)(=O)c2ccc(N)cc2)no1 [sulfamethoxazole]
interaction of antibiotic with compounds (FIC) (EMRSA-17 [5]; EMRSA-17, with both compounds I and II): indifference effect | MIC (EMRSA-17 [5]; [8]): 2080 µg/mL

gentamicin
MIC of antibiotic in combination (EMRSA-16 [4]): 8 µg/mL | MIC (EMRSA-17 [5]; EMRSA-17, substance alone): 1024 µg/mL

NCC[C@H](O)C(=O)N[C@@H]1C[C@H](N)[C@@H](O[C@H]2O[C@H](CN)[C@@H](O)[C@H](O)[C@H]2O)[C@H](O)[C@H]1O[C@H]1O[C@H](CO)[C@@H](O)[C@H](N)[C@H]1O [amikacin]
MIC of antibiotic in combination (EMRSA-16 [4]): 4 µg/mL | MIC (EMRSA-17 [5]; Staphylococcus aureus): 256 µg/mL
